Assay results as given in patent US20110251230A1, “THERAPEUTICS FOR NEUROLOGICAL DISORDERS” (UNIVERSITY OF SHEFFIELD, priority 2008, published 2011).
Structures can show the parent of a compound that is named as a salt. Where two headings read alike, the source gives them in different places. Values belong to the compound of their own block, whether it stands above or below them.

Key:
[1] = tested on: C6 (rat) astrocytic line; test: C6 oxidative stress assay (serum withdrawal, DCF); details: for Lowest dose with toxicity: C6; for IC50: C6, 24 h pre-treatment, serum withdrawal, DCF
[2] = tested on: NRF2-ARE pathway in the CHO 4× ARE-TK cell line; test: ARE reporter assay in CHO 4×ARE-TK-GFP cell line (GFP induction, EthD1 toxicity); details: for maximal fold induction: read-out: Average fold GFP induction at maximal response
Protocol: Chinese Hamster Ovary (CHO), NSC34 mouse motor neuronal cells, C6 (rat) and 1321N1 (human) astrocytic lines were routinely maintained in DMEM supplemented with 10% FBS and penicillin/streptomycin. […] These plasmids were transfected into CHO, C6 and 1321N1 cell lines using Lipofectamine 2000 (Invitrogen) and following 10-14 days of selection in 0.5 mg/ml G418 they were expanded and selected for basal eGFP expression using fluorescence activated cell sorting (BD, FACSAria) with two sequential cell sorts for each cell line. These mixed populations of stable transfectants with basal eGFP expression were used in subsequent assays and designated 4×ARE-TK-GFP for the ARE containing line and TK-GFP for the control cell line. […]
Confluent cultures of 4×ARE-TK-GFP CHO or TK-GFP CHO expressing cells in 96 or 384-well tissue-culture plates were treated with drug (0.01-100 µM in triplicate) or vehicle (0.1-1% DMSO) in FCS-free DMEM in triplicate for 24 hours. The media was removed and replaced with the same volume of PBS containing 0.3 μM EthD1. […] Non-linear regression was used to fit a sigmoidal dose-response curve on a semi-Log plot to calculate the EC50 using GraphPad Prism (GraphPad Software). The reporter assay was conducted in a similar fashion in C6 and 1321N1 astrocyte cell lines stably transfected with the 4×ARE-TK-GFP and TK-GFP constructs except that Eth D1 was added directly in the media and read prior to washing the cells once and reading the […] signal. […]
The compounds were applied in triplicate to confluent cells in 96 well plates in serum free medium for 24 hours and the induction of GFP measured in a fluorescence plate reader. […]

[3] = tested on: NSC34 mouse motor neuronal cells; test: NSC34 oxidative stress assay (serum withdrawal, DCF); details: for Lowest dose with toxicity: NSC34; for Maximal % reduction in Oxidative stress: NSC34, DCF fluorescence, negative = pro-oxidant
Protocol: (§1) A simple oxidative stress assay was used to determine whether preconditioning with NRF2-ARE inducing drugs could protect against a subsequent oxidative stress insult (serum withdrawal). The NSC34, C6 and 1321N1 cells were plated in 96 well tissue culture plates to achieve 30% confluency. […] Media was then replaced with serum free, phenol free media for 5 hrs. […] Cell survival assay was then performed on the cells as protection is measured as % reduction in DCF signal, therefore data points were excluded where a decrease in cell number was measured.
(§2) Briefly methylthiazolyldiphenyl-tetrazolium bromide (MTT) was added to the cells and a blank well to a final concentration 0.5 mg/ml and incubated at 37° C. for 1-3 hrs depending on the cell line used.

[4] = tested on: 1321N1 (human) astrocytic line; test: 1321N1 oxidative stress assay (serum withdrawal, DCF); details: for Lowest dose with toxicity: 1321N1; for Maximal % reduction in Oxidative stress: 1321N1, DCF fluorescence
Protocol: as §1, §2

[5] = Cricetulus griseus, 24 h, read-out: Average EC50
[6] = Cricetulus griseus, 24 h, read-out: Average EC50, CHO 4×ARE-TK-GFP, GFP induction, 24 h
[7] = read-out: Average EC50, CHO 4×ARE-TK-GFP, GFP induction, 24 h

Compound: ClC1=C(Cl)C2(Cl)C3C(Cl)C(Cl)CC3C1(Cl)C2(Cl)Cl (stereo not drawn) [Chlordane]
Lowest dose with toxicity [1]: none | IC50 [1]: 3.57 µM | Lowest dose with toxicity ([2]; CHO ARE reporter assay): 100 µM | EC50 [2, 5]: 9.18 µM | maximal fold induction ([2]; Cricetulus griseus, 24 h): 1.56 | Lowest dose with toxicity [3]: 3 µM | Lowest dose with toxicity [4]: none

Compound: CC(C)(C)c1cc(O)ccc1O [tBHQ, tert-Butyl Hydroquinone, reference compound]
toxicity at concentrations higher than peak expression [2]: signs of toxicity | fluorescence in the control TK-GFP cell line ([2]; control TK-GFP CHO cell line): No increase in fluorescence | concentration of peak ARE activation (GFP expression) ([2]; narrow window, 24 h, serum free medium): 10 µM

Compound: O=C(/C=C/c1ccc(O)cc1)c1ccccc1 [4 hydroxychalcone]
Lowest dose with toxicity ([2]; CHO ARE reporter assay): None | EC50 [2, 6]: 3.53 µM | maximal fold induction ([2]; Cricetulus griseus, 24 h): 1.88

Compound: methyl-7-deshydroxypyrogallin-4-carboxylate
Lowest dose with toxicity [1]: none | IC50 [1]: 2.95 µM | Maximal % reduction in Oxidative stress ([1]; C6, DCF fluorescence): 70% | Average fold GFP induction at maximal response ([2]; CHO 4×ARE-TK-GFP, 24 h): 2.83 fold | Lowest dose with toxicity ([2]; CHO ARE reporter assay): 100 µM | EC50 [2, 7]: 2050 µM | Lowest dose with toxicity [3]: 0.3 µM | Maximal % reduction in Oxidative stress [3]: −23% | Lowest dose with toxicity [4]: none | Maximal % reduction in Oxidative stress [4]: 45%

Compound: COc1cc(O)cc(OC)c1OC [Antiarol]
Lowest dose with toxicity [1]: 10 µM | Lowest dose with toxicity ([2]; Chinese hamster, 24 h): 100 µM | maximal fold induction ([2]; Cricetulus griseus, 24 h): 1.64 | Lowest dose with toxicity [3]: 10 µM | Lowest dose with toxicity [4]: none

Compound: CN1CCc2cccc3c2[C@H]1Cc1ccc(O)c(O)c1-3 [Apomorphine hydrochloride, reference compound]
Lowest dose with toxicity [1]: none | Lowest dose with toxicity ([2]; Chinese hamster, 24 h): 100 µM | maximal fold induction ([2]; Cricetulus griseus, 24 h): 1.9 | Lowest dose with toxicity [3]: 10 µM | Lowest dose with toxicity [4]: none

Compound: C=C(C)C(=O)C(=CC(=O)O)OC [penicillic acid]
Lowest dose with toxicity [1]: none | IC50 [1]: 4.62 µM | Lowest dose with toxicity ([2]; CHO ARE reporter assay): 100 µM | EC50 [2, 5]: 14.9 µM | maximal fold induction ([2]; Cricetulus griseus, 24 h): 2.64 | Lowest dose with toxicity [3]: none | Lowest dose with toxicity [4]: none

Compound: O=C(CCBr)N1CCN(C(=O)CCBr)CC1 [Pipobroman, reference compound]
Lowest dose with toxicity [1]: none | Lowest dose with toxicity ([2]; Chinese hamster, 24 h): 100 µM | maximal fold induction ([2]; Cricetulus griseus, 24 h): 3.21 | Lowest dose with toxicity [3]: none | Lowest dose with toxicity [4]: 10 µM

Compound: CCc1cccc(CC)c1N(COC)C(=O)CCl [Alachlor]
Lowest dose with toxicity [1]: none

Compound: CC1=C2C(=CO[C@H](C)[C@H]2C)C(O)=C(C(=O)O)C1=O [Citrinin]
Lowest dose with toxicity [1]: none | IC50 [1]: 20 µM | Lowest dose with toxicity ([2]; CHO ARE reporter assay): 30 µM | EC50 [2, 5]: 4.1 µM | maximal fold induction ([2]; Cricetulus griseus, 24 h): 3.26 | Lowest dose with toxicity [3]: none | Lowest dose with toxicity [4]: none | IC50 ([4]; 1321N1, 24 h pre-treatment, serum withdrawal, DCF): 0.338 µM

Compound: C=C(C)/C=C1/C=CC(=O)C(C)=C1 [Retusoquinone]
Lowest dose with toxicity [1]: none | Lowest dose with toxicity ([2]; Chinese hamster, 24 h): 100 µM | EC50 [2, 6]: ~35 µM | maximal fold induction ([2]; Cricetulus griseus, 24 h): 2.04 | Lowest dose with toxicity [3]: none | Lowest dose with toxicity [4]: none

Compound: CCCCCc1c2c(cc(O)c1C(=O)O)OC(=O)c1c(cc(OC)cc1C(=O)CCCC)O2 [Lobaric acid]
Lowest dose with toxicity [1]: none | Lowest dose with toxicity ([2]; Chinese hamster, 24 h): 100 µM | maximal fold induction ([2]; Cricetulus griseus, 24 h): 2.53 | Lowest dose with toxicity [3]: none | Lowest dose with toxicity [4]: none

Compound: CC(=O)O[C@@H]1CC2C(C)(C)C=CC(=O)[C@]2(C)C2CC[C@@]3(C)[C@H](c4ccoc4)OC(=O)C4OC43[C@@]21C (stereo partly drawn) [Isogedunin]
Average fold GFP induction at maximal response ([2]; CHO 4×ARE-TK-GFP, 24 h): 3.11 fold | Lowest dose with toxicity ([2]; CHO ARE reporter assay): None | EC50 [2, 7]: 550 µM | Lowest dose with toxicity [3]: 1 µM | Maximal % reduction in Oxidative stress [3]: 0% | Lowest dose with toxicity [4]: none | Maximal % reduction in Oxidative stress [4]: 10%

IC50 [1]: 3.01 µM
Compound: C=C(CC)C(=O)c1ccc(OCC(=O)O)c(Cl)c1Cl [Ethacrynic acid, reference compound]
Lowest dose with toxicity ([2]; Chinese hamster, 24 h): 100 µM | Lowest dose with toxicity [3]: 10 µM
